{"source": "patent EP4631937A1", "about": "“CRYSTALLINE FORM OR AMORPHOUS FORM OF OXOISOINDOLE-5-FORMAMIDE COMPOUND OR SALT AND SOLVATE THEREOF” (Hangzhou Glubio Pharmaceutical Co., Ltd., priority 2022, dated 2024)", "key": {"[1]": {"experiment": "Pharmacokinetic evaluation in mice by gavage", "format": "in vivo", "set-up": "AUClast /D: unit not given here", "conditions": "CD1 male mice, oral, 30 mg/kg, 25 mM citrate buffer (pH 3) containing 5% Tween 80", "experimental": "CD1 male mice were selected and the test compound was administered orally. The drug concentration in plasma at different time points was quantitatively determined by LC/MS/MS to evaluate the pharmacokinetic characteristics of the test drug in mice.\nExperimental materials: CD1 Mouse (male, 20-30 g, 6-8 weeks old, Zhejiang Weitong Lihua).\nBlood was collected from the dorsal plantar vein at 0.25 h, 0.5 h, 1 h, 2 h, 4 h, 6 h, 8 h and 24 h after administration, placed in an anticoagulant tube containing EDTA-K2 and mixed, and centrifuged at 4°C and 4000 g for 5 minutes. The drug concentration in blood was determined by LC-MS/MS, and the relevant pharmacokinetic parameters were calculated by the non-compartmental linear/log trapezoidal method using Phoenix WinNonlin 6.3 pharmacokinetic software."}, "[2]": {"experiment": "Hygroscopicity test by DVS, with XRPD after DVS", "format": "physicochemical", "conditions": "25 °C, listed as Crystalline form G", "experimental": "• DVS Intrinsic Dynamic Vapor Sorption Instrument • Gas flow rate 200 sccm, furnace temperature 25 °C.\n(§1) The hygroscopicity and dehydration behavior of crystalline form B was investigated by DVS. Humidity program: 25 °C, 40-0-95-0-40% RH, dm/dt 0.002, shortest equilibrium time was 60 min, and longest equilibrium time was 360 min. XRPD was also performed on the samples after DVS test to determine whether the crystal transformation occurred.\nas §1, with “E” for “B”\nas §1, with “G” for “B”"}, "[3]": {"experiment": "Stability test of crystalline forms (open container at 25°C/92% RH and 40°C/75% RH, sealed container at 60°C, 13 days; XRPD, HPLC, colour)", "format": "physicochemical", "conditions": "initial, before storage; listed as Crystalline form G", "experimental": "Placed in a open container at 25°C/92% RH and 40°C/75% RH for 13 days, respectively, or in a sealed container at 60°C for 13 days. […]\n(§2) Placed in a open container at 25 °C/92% RH and 40 °C/75% RH for 13 days, respectively, or in a sealed container at 60 °C for 13 days. […]\nas §2"}, "[4]": {"experiment": "Stability test of crystalline forms (open container at 25°C/92% RH and 40°C/75% RH, sealed container at 60°C, 13 days; XRPD, HPLC, colour)", "format": "physicochemical", "conditions": "Solid, 1 week, listed as Crystalline form G; for Chemical purity / Chiral purity: HPLC/SFC"}, "[5]": {"experiment": "Simulated tableting experiment (XRPD after pressing)", "format": "physicochemical", "experimental": "About 10 mg of crystalline form G was weighed and pressed at 2 MPa, 5 MPa or 10 MPa for 5 min. The crystal transformation and the change of crystallinity were investigated by XRPD characterization."}}}
{"smiles": "O=C1CC[C@H](N2Cc3cc(C(=O)N[C@H](c4ccc(Cl)cn4)C4CCC4)ccc3C2=O)C(=O)N1", "note": "[crystalline form G, N-((S)-(5-chloropyridin-2-yl)(cyclobutyl)methyl)-2-((S)-2,6-dioxopiperidin-3-yl)-1-oxoisoindoline-5-carboxamide]", "values": [{"measurement": "AUClast /D", "setting": "[1]; dose-normalised", "result": "306 ± 35"}, {"measurement": "AUC(0-inf)", "setting": "[1]; mouse, plasma", "result": "10700 ± 2100", "unit": "ng·h/mL"}, {"measurement": "AUC(0-t)", "setting": "[1]; mouse, plasma", "result": "9170 ± 1050", "unit": "ng·h/mL"}, {"measurement": "Cmax", "setting": "[1]; mouse, plasma", "result": "1370 ± 365", "unit": "ng/mL"}, {"measurement": "Tmax", "setting": "[1]; mouse, plasma", "result": 25.2, "unit": "min"}, {"measurement": "half-life", "setting": "[1]; mouse, plasma", "result": 522, "unit": "min"}, {"measurement": "1st adsorption weight change percentage", "setting": "[2]; relative humidity 0%", "result": 0.0, "unit": "%"}, {"measurement": "1st desorption weight change percentage", "setting": "[2]; relative humidity 0%", "result": 0.0, "unit": "%"}, {"measurement": "1st adsorption weight change percentage", "setting": "[2]; relative humidity 10%", "result": 0.0, "unit": "%"}, {"measurement": "1st desorption weight change percentage", "setting": "[2]; relative humidity 10%", "result": 0.1, "unit": "%"}, {"measurement": "2nd adsorption weight change percentage", "setting": "[2]; relative humidity 10%", "result": 0.0, "unit": "%"}, {"measurement": "2nd desorption weight change percentage", "setting": "[2]; relative humidity 10%", "result": 0.1, "unit": "%"}, {"measurement": "1st adsorption weight change percentage", "setting": "[2]; relative humidity 20%", "result": 0.0, "unit": "%"}, {"measurement": "1st desorption weight change percentage", "setting": "[2]; relative humidity 20%", "result": 0.1, "unit": "%"}, {"measurement": "2nd adsorption weight change percentage", "setting": "[2]; relative humidity 20%", "result": 0.0, "unit": "%"}, {"measurement": "2nd desorption weight change percentage", "setting": "[2]; relative humidity 20%", "result": 0.1, "unit": "%"}, {"measurement": "1st adsorption weight change percentage", "setting": "[2]; relative humidity 30%", "result": 0.1, "unit": "%"}, {"measurement": "1st desorption weight change percentage", "setting": "[2]; relative humidity 30%", "result": 0.2, "unit": "%"}, {"measurement": "2nd adsorption weight change percentage", "setting": "[2]; relative humidity 30%", "result": 0.1, "unit": "%"}, {"measurement": "2nd desorption weight change percentage", "setting": "[2]; relative humidity 30%", "result": 0.2, "unit": "%"}, {"measurement": "1st adsorption weight change percentage", "setting": "[2]; relative humidity 40%", "result": 0.1, "unit": "%"}, {"measurement": "1st desorption weight change percentage", "setting": "[2]; relative humidity 40%", "result": 0.3, "unit": "%"}, {"measurement": "2nd adsorption weight change percentage", "setting": "[2]; relative humidity 40%", "result": 0.1, "unit": "%"}, {"measurement": "2nd desorption weight change percentage", "setting": "[2]; relative humidity 40%", "result": 0.3, "unit": "%"}, {"measurement": "1st adsorption weight change percentage", "setting": "[2]; relative humidity 50%", "result": 0.2, "unit": "%"}, {"measurement": "2nd desorption weight change percentage", "setting": "[2]; relative humidity 50%", "result": 0.3, "unit": "%"}, {"measurement": "1st adsorption weight change percentage", "setting": "[2]; relative humidity 60%", "result": 0.2, "unit": "%"}, {"measurement": "2nd desorption weight change percentage", "setting": "[2]; relative humidity 60%", "result": 0.4, "unit": "%"}, {"measurement": "1st adsorption weight change percentage", "setting": "[2]; relative humidity 70%", "result": 0.3, "unit": "%"}, {"measurement": "2nd desorption weight change percentage", "setting": "[2]; relative humidity 70%", "result": 0.4, "unit": "%"}, {"measurement": "1st adsorption weight change percentage", "setting": "[2]; relative humidity 80%", "result": 0.3, "unit": "%"}, {"measurement": "2nd desorption weight change percentage", "setting": "[2]; relative humidity 80%", "result": 0.5, "unit": "%"}, {"measurement": "1st adsorption weight change percentage", "setting": "[2]; relative humidity 90%", "result": 0.5, "unit": "%"}, {"measurement": "2nd desorption weight change percentage", "setting": "[2]; relative humidity 90%", "result": 0.5, "unit": "%"}, {"measurement": "1st adsorption weight change percentage", "setting": "[2]; relative humidity 95%", "result": 0.7, "unit": "%"}, {"measurement": "2nd desorption weight change percentage", "setting": "[2]; relative humidity 95%", "result": 0.7, "unit": "%"}, {"measurement": "XRPD after DVS test", "setting": "[2]; after 40-0-95-0-40% RH", "result": "The crystal form did not change, see Figure 20b"}, {"measurement": "moisture adsorbed (DVS)", "setting": "[2]; under 40%RH-95%RH", "result": "0.6% of moisture was adsorbed under 40%RH-95%RH, see Figure 20a"}, {"measurement": "Initial purity (HPLC/SFC) Chemical purity", "setting": "[3]", "result": 99.7, "unit": "%"}, {"measurement": "Initial purity (HPLC/SFC) Chiral purity", "setting": "[3]", "result": 97.6, "unit": "%"}, {"measurement": "Chemical purity", "setting": "[4]; 25 °C/92% RH, open container", "result": 99.4, "unit": "%"}, {"measurement": "Chiral purity", "setting": "[4]; 25 °C/92% RH, open container", "result": 97.8, "unit": "%"}, {"measurement": "Solid (XRPD)", "setting": "[4]; 25 °C/92% RH, open container", "result": "The crystal form did not change, see Figure 17c"}, {"measurement": "Chemical purity", "setting": "[4]; 40 °C/75% RH, open container", "result": 99.5, "unit": "%"}, {"measurement": "Chiral purity", "setting": "[4]; 40 °C/75% RH, open container", "result": 97.8, "unit": "%"}, {"measurement": "Solid (XRPD)", "setting": "[4]; 40 °C/75% RH, open container", "result": "The crystal form did not change, see Figure 17c"}, {"measurement": "Chemical purity", "setting": "[4]; 60 °C, sealed container", "result": 99.5, "unit": "%"}, {"measurement": "Chiral purity", "setting": "[4]; 60 °C, sealed container", "result": 97.7, "unit": "%"}, {"measurement": "Solid (XRPD)", "setting": "[4]; 60 °C, sealed container", "result": "The crystal form did not change, see Figure 17c"}, {"measurement": "Notes (change of crystallinity)", "setting": "[5]; pressed at 2 MPa for 5 min", "result": "No significant change in crystallinity"}, {"measurement": "XRPD", "setting": "[5]; pressed at 2 MPa for 5 min", "result": "Crystalline form G, see Figure 21a"}, {"measurement": "Notes (change of crystallinity)", "setting": "[5]; pressed at 5 MPa for 5 min", "result": "No significant change in crystallinity"}, {"measurement": "XRPD", "setting": "[5]; pressed at 5 MPa for 5 min", "result": "Crystalline form G, see Figure 21a"}, {"measurement": "Notes (change of crystallinity)", "setting": "[5]; pressed at 10 MPa for 5 min", "result": "No significant change in crystallinity"}, {"measurement": "XRPD", "setting": "[5]; pressed at 10 MPa for 5 min", "result": "Crystalline form G, see Figure 21a"}, {"measurement": "change in crystallinity", "setting": "[5]; tableted at 2 MPa, 5 MPa and 10 MPa pressures", "result": "no significant change in crystallinity was observed"}]}
